System: CD-1 mice
Experiment: In vivo efficacy test - marble burying
Parameters: species or system mouse
Conditions: male CD-1 mice, 10 and 30 mg/kg po, dosed 30 min prior to test; doses tested 1, 3, 10 and 30 mg/kg; one-way ANOVA with Dunnett's post-hoc test

N#Cc1cc(Cl)cc(-c2cc(-c3ccc(F)cn3)ncn2)c1 [Example 17, 3-chloro-5-[6-(5-fluoropyridin-2-yl)pyrimidin-4-yl]benzonitrile]
number of marbles buried versus vehicle group: statistically significant decrease in the number of marbles buried

— patent US10584111B2, “4-(3-cyanophenyl)-6-pyridinylpyrimidine mGlu5 modulators” (Heptares Therapeutics Limited, priority 2013, dated 2020)
